Earlier results in patent US20140080794A1, “Methods and Compositions for the Treatment of Estrogen-Dependent Hyperproliferative Uterine Disorders” (Vivus, Inc., priority 2008, published 2014).

System: endometriosis patients

Compound: CC(C)(C#N)c1cc(Cn2cncn2)cc(C(C)(C)C#N)c1 [anastrozole, α, α, α′, α′-tetramethyl-5-(1H-1,2,4-triazol-1-ylmethyl)-1,3-benzene-diacetonitrile]
- symptoms of endometriosis (1 mg anastrozole and an oral contraceptive (20 μg ethinyl estradiol/1 mg levonorgestrel) per day for six months): symptom improvement
- systemic estradiol levels (1 mg anastrozole and an oral contraceptive (20 μg ethinyl estradiol/1 mg levonorgestrel) per day, all patients, by the end of the treatment period): significantly suppressed
